Experimental data published in ChEMBL document CHEMBL4251700, “Novel Staphyloxanthin Inhibitors with Improved Potency against Multidrug Resistant Staphylococcus aureus” (ACS Med Chem Lett, 2018).
Substitutions are numbered along the chain they refer to. Calls of active or inactive are those of the source. No cut-off for these calls is given here.

Experiments:
[1] = biological target: T1, 4,4'-diapophytoene desaturase (4,4'-diaponeurosporene-forming) (Staphylococcus aureus (strain MW2)) (UniProt Q8NUQ6); assay: Inhibition of CrtN in Staphylococcus aureus USA400 MW2 assessed as H2O2-induced bacterial death by measuring reduction in bacterial survival at 1 uM preincubated for 24 hrs followed by H2O2 addition measured after 30 mins by serial dilution method; settings: Staphylococcus aureus subsp. aureus MW2
T1 sequence (whole entry): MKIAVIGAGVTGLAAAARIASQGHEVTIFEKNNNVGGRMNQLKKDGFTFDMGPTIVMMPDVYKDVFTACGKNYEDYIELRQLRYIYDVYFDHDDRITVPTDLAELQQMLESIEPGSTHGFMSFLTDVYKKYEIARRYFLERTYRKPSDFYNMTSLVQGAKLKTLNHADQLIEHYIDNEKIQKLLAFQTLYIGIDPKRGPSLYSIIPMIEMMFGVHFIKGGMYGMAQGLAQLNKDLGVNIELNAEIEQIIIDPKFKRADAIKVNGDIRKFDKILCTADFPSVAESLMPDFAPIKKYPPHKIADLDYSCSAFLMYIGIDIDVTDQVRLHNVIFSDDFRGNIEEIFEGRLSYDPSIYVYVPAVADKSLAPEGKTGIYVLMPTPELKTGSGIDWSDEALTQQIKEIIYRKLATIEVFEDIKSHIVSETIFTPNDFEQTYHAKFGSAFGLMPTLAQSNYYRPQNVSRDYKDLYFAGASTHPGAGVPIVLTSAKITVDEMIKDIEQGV

[2] = biological target: T2, 4,4'-diapophytoene desaturase (4,4'-diaponeurosporene-forming) (Staphylococcus aureus (strain Newman), UniProt O07855); assay: Inhibition of CrtN in Staphylococcus aureus Newman assessed as reduction in staphyloxanthin levels after 48 hrs by spectrophotometric method-based pigment inhibition assay; set-up: species or system Staphylococcus aureus subsp. aureus str. Newman
T2 sequence (O07855 whole entry): T1 sequence (whole entry) with Q500R

## CN(C/C=C/C=C/c1ccc(C(F)(F)F)cc1)Cc1ccc2c(c1)OCCO2.Cl
[1]
  inhibition: Active
[2]
  IC50: 2.2 nM
